Test results taken from ChEMBL document CHEMBL3232928, “Fragment-to-hit-to-lead discovery of a novel pyridylurea scaffold of ATP competitive dual targeting type II topoisomerase inhibiting antibacterial agents” (J Med Chem, 2013).
In brackets after ≈: the same amount, converted by molar mass.

Tested on: Escherichia coli
Assay: Antibacterial activity against tolC efflux pump deficient Escherichia coli W3110 assessed as growth inhibition after 18 to 24 hrs by CLSI broth microdilution method
Format: functional
For `CCNC(=O)Nc1cc(-c2cccnc2)c(-c2cncc(C(=O)O)c2)cn1`, the MIC was over 64 µg/mL.
`CCNC(=O)Nc1cc(-c2ccccc2)c(-c2cncc(C(=O)O)c2)cn1` showed an MIC of 36 µg/mL (≈ 99.3 µM).
With `CCNC(=O)Nc1ccc(-c2cccnc2)cn1` the MIC was over 48 µg/mL.
In the case of `CCNC(=O)Nc1cc(-c2nc(C(F)(F)F)cs2)c(-c2ncc(C(=O)O)s2)cn1`, the MIC is reported as 22 µg/mL (≈ 49.6 µM).
Molecule `CCNC(=O)Nc1cc(Br)c(-c2cncc(C(=O)O)c2)cn1` has an MIC of over 9 µg/mL.

Tested on: not listed separately
Assay: Inhibition of ATPase activity in Escherichia coli ParE by ammonium molybdate/malachite green-based absorbance assay
For `CCNC(=O)Nc1ccc(-c2ncc(C(=O)O)s2)cn1`, the IC50 was 0.11 µM.
`CCNC(=O)Nc1cc(-c2cccnc2)c(-c2cncc(C(=O)O)c2)cn1` showed an IC50 of 0.31 µM.
For `CCNC(=O)Nc1cc(-c2ccccc2)c(-c2cncc(C(=O)O)c2)cn1`, the IC50 was 0.17 µM.
With `CCNC(=O)Nc1ccc(-c2cccnc2)cn1` the IC50 was 1.4 µM.
Molecule `CCNC(=O)Nc1cc(-c2nc(C(F)(F)F)cs2)c(-c2ncc(C(=O)O)s2)cn1` has an IC50 of under 0.01 µM.
With `CCNC(=O)Nc1cc(Br)c(-c2cncc(C(=O)O)c2)cn1` the IC50 was 0.053 µM.

Tested on: Moraxella catarrhalis
Assay: Antibacterial activity against wild type Moraxella catarrhalis ATCC 43617 assessed as growth inhibition after 18 to 24 hrs by CLSI broth microdilution method
Format: functional
`CCNC(=O)Nc1ccc(-c2ncc(C(=O)O)s2)cn1` gave an MIC of over 64 µg/mL.
`CCNC(=O)Nc1ccc(-c2nc(C(=O)O)cs2)cn1` showed an MIC of over 64 µg/mL.
`CCNC(=O)Nc1cc(-c2cccnc2)c(-c2cncc(C(=O)O)c2)cn1` showed an MIC of over 64 µg/mL.
Work on `CCNC(=O)Nc1cc(-c2ccccc2)c(-c2cncc(C(=O)O)c2)cn1` yielded an MIC of over 64 µg/mL.
Molecule `CCNC(=O)Nc1ccc(-c2cccnc2)cn1` has an MIC of over 48 µg/mL.
With `CCNC(=O)Nc1cc(-c2nc(C(F)(F)F)cs2)c(-c2ncc(C(=O)O)s2)cn1` the MIC was 44 µg/mL (≈ 99.2 µM).

Tested on: Staphylococcus aureus
Assay: Antibacterial activity against methicillin-sensitive wild type Staphylococcus aureus assessed as growth inhibition after 18 to 24 hrs by CLSI broth microdilution method
Format: functional
Molecule `CCNC(=O)Nc1ccc(-c2ncc(C(=O)O)s2)cn1` has an MIC of over 64 µg/mL.
`CCNC(=O)Nc1ccc(-c2nc(C(=O)O)cs2)cn1` showed an MIC of over 64 µg/mL.
Molecule `CCNC(=O)Nc1cc(-c2cccnc2)c(-c2cncc(C(=O)O)c2)cn1` has an MIC of over 64 µg/mL.
`CCNC(=O)Nc1cc(-c2ccccc2)c(-c2cncc(C(=O)O)c2)cn1` gave an MIC of over 64 µg/mL.
For `CCNC(=O)Nc1ccc(-c2cccnc2)cn1`, the MIC was over 48 µg/mL.
Work on `CCNC(=O)Nc1cc(-c2nc(C(F)(F)F)cs2)c(-c2ncc(C(=O)O)s2)cn1` yielded an MIC of over 64 µg/mL.
`CCNC(=O)Nc1cc(Br)c(-c2cncc(C(=O)O)c2)cn1` gave an MIC of over 9 µg/mL.

Tested on: not listed separately
Assay: Inhibition of ATPase activity in Escherichia coli ParC/ParE by ammonium molybdate/malachite green-based absorbance assay
In the case of `CCNC(=O)Nc1ccc(-c2ncc(C(=O)O)s2)cn1`, the IC50 is reported as 8.8 µM.
Molecule `CCNC(=O)Nc1cc(-c2cccnc2)c(-c2cncc(C(=O)O)c2)cn1` has an IC50 of 10 µM.
With `CCNC(=O)Nc1cc(-c2ccccc2)c(-c2cncc(C(=O)O)c2)cn1` the IC50 was 2 µM.
Work on `CCNC(=O)Nc1ccc(-c2cccnc2)cn1` yielded an IC50 of 80 µM.
`CCNC(=O)Nc1cc(-c2nc(C(F)(F)F)cs2)c(-c2ncc(C(=O)O)s2)cn1` gave an IC50 of 0.94 µM.
For `CCNC(=O)Nc1cc(Br)c(-c2cncc(C(=O)O)c2)cn1`, the IC50 was 4.8 µM.

Tested on: not listed separately
Assay: Octanol-phosphate buffer partition coefficient, log D of the compound at pH 7.4 after 1 hr by shake flask method
Format: physicochemical
`CCNC(=O)Nc1cc(-c2cccnc2)c(-c2cncc(C(=O)O)c2)cn1` gave a logD at 1 h of -1.5.
In the case of `CCNC(=O)Nc1cc(-c2ccccc2)c(-c2cncc(C(=O)O)c2)cn1`, the logD at 1 h is reported as -0.31.
Molecule `CCNC(=O)Nc1cc(Br)c(-c2cncc(C(=O)O)c2)cn1` has a logD at 1 h of -1.

Tested on: not listed separately
Assay: Antibacterial activity against wild type Haemophilus influenzae Rd KW20 ATCC 51907 assessed as growth inhibition after 18 to 24 hrs by CLSI broth microdilution method
Format: functional
`CCNC(=O)Nc1ccc(-c2ncc(C(=O)O)s2)cn1` showed an MIC of over 64 µg/mL.
For `CCNC(=O)Nc1ccc(-c2nc(C(=O)O)cs2)cn1`, the MIC was over 64 µg/mL.
For `CCNC(=O)Nc1cc(-c2cccnc2)c(-c2cncc(C(=O)O)c2)cn1`, the MIC was over 64 µg/mL.
`CCNC(=O)Nc1cc(-c2ccccc2)c(-c2cncc(C(=O)O)c2)cn1` showed an MIC of over 64 µg/mL.
Work on `CCNC(=O)Nc1ccc(-c2cccnc2)cn1` yielded an MIC of over 48 µg/mL.
Work on `CCNC(=O)Nc1cc(-c2nc(C(F)(F)F)cs2)c(-c2ncc(C(=O)O)s2)cn1` yielded an MIC of over 64 µg/mL.
`CCNC(=O)Nc1cc(Br)c(-c2cncc(C(=O)O)c2)cn1` showed an MIC of over 9 µg/mL.

Tested on: Escherichia coli
Assay: Antibacterial activity against wild type Escherichia coli W3110 assessed as growth inhibition after 18 to 24 hrs by CLSI broth microdilution method
Format: functional
With `CCNC(=O)Nc1ccc(-c2ncc(C(=O)O)s2)cn1` the MIC was over 64 µg/mL.
`CCNC(=O)Nc1ccc(-c2nc(C(=O)O)cs2)cn1` gave an MIC of over 64 µg/mL.
In the case of `CCNC(=O)Nc1cc(-c2cccnc2)c(-c2cncc(C(=O)O)c2)cn1`, the MIC is reported as over 64 µg/mL.
Work on `CCNC(=O)Nc1cc(-c2ccccc2)c(-c2cncc(C(=O)O)c2)cn1` yielded an MIC of over 64 µg/mL.
In the case of `CCNC(=O)Nc1ccc(-c2cccnc2)cn1`, the MIC is reported as over 48 µg/mL.
`CCNC(=O)Nc1cc(-c2nc(C(F)(F)F)cs2)c(-c2ncc(C(=O)O)s2)cn1` gave an MIC of over 64 µg/mL.
Molecule `CCNC(=O)Nc1cc(Br)c(-c2cncc(C(=O)O)c2)cn1` has an MIC of over 9 µg/mL.

Biological target: DNA gyrase subunit B (Staphylococcus aureus, UniProt P0A0K8)
Sequence (P0A0K8 whole entry): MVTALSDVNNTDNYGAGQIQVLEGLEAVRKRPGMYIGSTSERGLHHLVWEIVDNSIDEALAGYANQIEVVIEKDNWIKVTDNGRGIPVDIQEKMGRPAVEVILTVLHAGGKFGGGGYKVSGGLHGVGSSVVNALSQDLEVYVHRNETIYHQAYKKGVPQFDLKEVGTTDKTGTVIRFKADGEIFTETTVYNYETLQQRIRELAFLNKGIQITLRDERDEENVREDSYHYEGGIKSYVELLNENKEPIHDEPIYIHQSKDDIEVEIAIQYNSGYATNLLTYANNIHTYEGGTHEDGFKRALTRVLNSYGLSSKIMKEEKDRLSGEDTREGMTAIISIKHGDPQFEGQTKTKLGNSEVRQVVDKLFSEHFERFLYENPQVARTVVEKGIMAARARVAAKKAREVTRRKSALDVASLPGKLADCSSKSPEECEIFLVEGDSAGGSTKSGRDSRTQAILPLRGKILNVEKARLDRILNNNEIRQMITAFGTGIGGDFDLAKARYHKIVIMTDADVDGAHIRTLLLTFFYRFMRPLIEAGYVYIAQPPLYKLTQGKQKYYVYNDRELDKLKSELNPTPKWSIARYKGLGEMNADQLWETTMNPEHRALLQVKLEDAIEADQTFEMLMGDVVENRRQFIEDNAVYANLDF
Assay: Inhibition of ATPase activity in Staphylococcus aureus GyrB tetramer in presence of Escherichia coli GyrA by ammonium molybdate/malachite green-based absorbance assay
In the case of `CCNC(=O)Nc1ccc(-c2ncc(C(=O)O)s2)cn1`, the IC50 is reported as 0.27 µM.
`CCNC(=O)Nc1ncccn1` showed an IC50 of 80 µM.
In the case of `O=C(NCC(F)(F)F)Nc1ccccn1`, the IC50 is reported as over 1000 µM.
Molecule `CCNC(=O)Nc1ccc(-c2nc(C(=O)O)cs2)cn1` has an IC50 of 3.6 µM.
In the case of `CCNC(=O)Nc1ccccn1`, the IC50 is reported as 32 µM.
`O=C(Nc1ccccn1)NC1CC1` showed an IC50 of 1000 µM.
With `CCNC(=O)Nc1cc(-c2cccnc2)c(-c2cncc(C(=O)O)c2)cn1` the IC50 was 0.27 µM.
`C#CCNC(=O)Nc1ccccn1` gave an IC50 of 350 µM.
With `CCNC(=O)Nc1cc(-c2ccccc2)c(-c2cncc(C(=O)O)c2)cn1` the IC50 was 0.06 µM.
`CCNC(=O)Nc1ccc(-c2cccnc2)cn1` showed an IC50 of 2.7 µM.
`CCCNC(=O)Nc1ccccn1` showed an IC50 of over 1000 µM.
With `CCOC(=O)Nc1ccccn1` the IC50 was over 1000 µM.
Work on `CCNC(=O)Nc1cc(-c2nc(C(F)(F)F)cs2)c(-c2ncc(C(=O)O)s2)cn1` yielded an IC50 of under 0.01 µM.
Molecule `CCNC(=O)Nc1ccccc1` has an IC50 of over 1000 µM.
For `CCNC(=O)Nc1cc(Br)c(-c2cncc(C(=O)O)c2)cn1`, the IC50 was 0.3 µM.
Molecule `CCN(CC)C(=O)Nc1ccccn1` has an IC50 of 38 µM.
With `CNC(=O)Nc1ccccn1` the IC50 was 100 µM.
In the case of `CCNC(=O)Nc1nc2ccccc2[nH]1`, the IC50 is reported as 64 µM.

Tested on: not listed separately
Assay: Inhibition of ATPase activity in Escherichia coli GyrA/GyrB by ammonium molybdate/malachite green-based absorbance assay
`CCNC(=O)Nc1ccc(-c2ncc(C(=O)O)s2)cn1` showed an IC50 of 0.24 µM.
`CCNC(=O)Nc1cc(-c2cccnc2)c(-c2cncc(C(=O)O)c2)cn1` gave an IC50 of 0.3 µM.
With `CCNC(=O)Nc1cc(-c2ccccc2)c(-c2cncc(C(=O)O)c2)cn1` the IC50 was 0.096 µM.
Molecule `CCNC(=O)Nc1ccc(-c2cccnc2)cn1` has an IC50 of 2 µM.
Work on `CCNC(=O)Nc1cc(-c2nc(C(F)(F)F)cs2)c(-c2ncc(C(=O)O)s2)cn1` yielded an IC50 of under 0.01 µM.
`CCNC(=O)Nc1cc(Br)c(-c2cncc(C(=O)O)c2)cn1` showed an IC50 of 0.068 µM.

Tested on: not listed separately
Assay: Antibacterial activity against Streptococcus pneumoniae D39 NCTC 7466 assessed as growth inhibition after 18 to 24 hrs by CLSI broth microdilution method
Format: functional
`CCNC(=O)Nc1ccc(-c2ncc(C(=O)O)s2)cn1` showed an MIC of 64 µg/mL (≈ 219 µM).
For `CCNC(=O)Nc1ccc(-c2nc(C(=O)O)cs2)cn1`, the MIC was over 64 µg/mL.
`CCNC(=O)Nc1cc(-c2cccnc2)c(-c2cncc(C(=O)O)c2)cn1` showed an MIC of over 64 µg/mL.
In the case of `CCNC(=O)Nc1cc(-c2ccccc2)c(-c2cncc(C(=O)O)c2)cn1`, the MIC is reported as 4.5 µg/mL (≈ 12.4 µM).
Molecule `CCNC(=O)Nc1cc(-c2nc(C(F)(F)F)cs2)c(-c2ncc(C(=O)O)s2)cn1` has an MIC of 2.8 µg/mL (≈ 6.31 µM).
For `CCNC(=O)Nc1cc(Br)c(-c2cncc(C(=O)O)c2)cn1`, the MIC was 4.6 µg/mL (≈ 12.6 µM).

Tested on: Staphylococcus aureus
Assay: Antibacterial activity against methicillin-resistant and […] Staphylococcus aureus assessed as growth inhibition after 18 to 24 hrs by CLSI broth microdilution method
Format: functional
With `CCNC(=O)Nc1ccc(-c2cccnc2)cn1` the MIC was over 64 µg/mL.
Work on `CCNC(=O)Nc1cc(-c2nc(C(F)(F)F)cs2)c(-c2ncc(C(=O)O)s2)cn1` yielded an MIC of 44 µg/mL (≈ 99.2 µM).
